Source: EP0497852B1, “BICYCLO-IMIDAZOLES, PROCESS FOR PRODUCING THEM AND DRUGS CONTAINING THEM” (BOEHRINGER MANNHEIM GMBH, priority 1989, dated 1991)

System: Erythrozyten-Aggregation
Assay: Erythrocyte aggregation in human blood, Mini-Erythrozyten-Aggregometer (Myrenne)
Format: cell-based, Humanblut gesunder Spender
Settings: 10⁻⁵ M, haematocrit 45 %, difference between control baseline and substance solution, two experiments, different donors, index dimensionless
Text: Die Bestimmung der Erythrozyten-Aggregation als Parameter für die Hämorheologie erfolgte mit dem Mini-Erythrozyten-Aggregometer der Fa. Myrenne, Roetgen¹). Als Maß gibt dieses Gerät einen dimensionslosen Index an, der mit steigender Aggregationstendenz zunimmt.
Die Untersuchungen wurden mit dem Humanblut gesunder Spender durchgeführt. Das auf einen Haematokrit von 45 % eingestellte Blut wurde mit der Kontrollösung oder den Substanzlösungen inkubiert. Anschließend wurde die Erythrozyten-Aggregation gemessen. Jede Substanz wurde bei einer Konzentration von 10⁻⁵ M untersucht. Pro Substanz wurden zwei Versuche mit dem Blut verschiedener Spender durchgeführt. Es wurde die Differenz der Aggregationsindices zwischen dem Ausgangswert der Kontrollösung und den Werten der Substanzlösung errechnet. Diese Werte sind in der folgenden Tabelle aufgelistet.

CC1(C)CC(=O)Nc2ccc(-c3c[nH]c(-c4ccccc4)n3)cc21 [Beispiel 14, 3,4-Dihydro-4,4-dimethyl-6-[2-phenyl-4(1H)-imidazolyl]-2(1H)-chinolinon]
Differenz der Erythrozytenaggregationsindices (E₂-E₁): -7.2

CCN1C(=O)C(C)(C)c2cc(-c3c[nH]c(-c4ccc(F)cc4)n3)ccc21 [Beispiel 5, 1,3-Dihydro-3,3-dimethyl-1-ethyl-5-[2-(4-fluorphenyl)-4(1H)-imidazolyl]-(2H)-indol-2-on]
Differenz der Erythrozytenaggregationsindices (E₂-E₁): -8.7

CN1C(=O)C(C)(C)c2cc(-c3c[nH]c(-c4ccccc4)n3)ccc21 [Beispiel 17, 1,3-Dihydro-1,3,3-trimethyl-5-[2-phenyl-4(1H)-imidazolyl]-(2H)-indol-2-on]
Differenz der Erythrozytenaggregationsindices (E₂-E₁): -8.6

CC1(C)C(=O)Nc2ccc(-c3c[nH]c(-c4ccc(Cl)cc4)n3)cc21 [Beispiel 6, 1,3-Dihydro-3,3-dimethyl-5-[2-(4-chlorphenyl)-4(1H)-imidazolyl]-(2H)-indol-2-on]
Differenz der Erythrozytenaggregationsindices (E₂-E₁): -8.2
